Results: patent US20030212078A1, “Topical administration of pharmacological compositions for non-systemic treatment of pruritus” (priority 2003, published 2003)

Legend:
[1] = tested on: patients with pruritus associated with atopic dermatitis; conditions: human, in vivo
Method: In another small uncontrolled and unblinded trial, one group of patients with pruritus associated with atopic dermatitis was treated with a spray (aqueous buffered solution of 40 mg/ml hydroxyzine hydrochloride), which was topically applied to an area of the patients' skin affected by atopic dermatitis. The patients were instructed to spray about 0.1 ml (three pump actions of the manually operated spray bottle) of the composition onto an area of about 10 cm^2 affected by symptomatic itching for up to 5 applications per day for a period of two weeks. A second group of group of patients with pruritus associated with atopic dermatitis was treated with a cream (W/O emulsion containing 2% (wt) hydroxyzine hydrochloride), which was topically applied to an area of the patients' skin affected by atopic dermatitis. The patients were instructed to massage a small portion (about 0.2 gram) into an area of about 10 cm^2 affected by symptomatic itching for up to 5 applications per day for a period of two weeks.

[2] = tested on: patients with pruritus (neurodermatitis; insect bite); assay: Small, uncontrolled and unblinded trial of hydroxyzine*HCl skin cream in two patients with pruritus; type: in vivo, human; conditions: skin cream comprising 5% (by weight) hydroxyzine*HCl, both patients
Method: In a small, uncontrolled and unblinded trial, two patients with pruritus were treated with a skin cream comprising 5% (by weight) hydroxyzine*HCl. The first patient was diagnosed with neurodermatitis (a non-allergic condition), while the second patient was diagnosed with an insect bite (an allergic condition).

Row | patients who experienced weight gain of at least 4% ([1]; 2 months) | patients who experienced drowsiness ([1]; 2 weeks) | patients who experienced transient tachycardia ([1]; 2 weeks) | SMILES | time to positive result (significant reduction in pruritus) [2] [s] | positive result (reduction in pruritus) ([2]; two patients (neurodermatitis, insect bite))
1 | 5/15 | – | – | CN1CCC(=C2c3ccccc3C=Cc3ccccc32)CC1 [cyproheptadine] | – | –
2 | – | 13/15 | 4/15 | Cl.Cl.OCCOCCN1CCN(C(c2ccccc2)c2ccc(Cl)cc2)CC1 (centres unmarked) [hydroxyzine, 1-(p-chlorobenzhydryl) 4-[2-(2-hydroxyethoxy)-ethyl] piperazine dihydrochloride] | 60 | significant reduction in pruritus
